In patent publication US20130136772A1, “REGULATION OF IMMUNE RESPONSE BY COLOCYNTHIN AND/OR ITS DERIVATIVES” (priority 2010, published 2013):

Legend:
[1] = test system: CD4+ T cells; assay: Lymphocyte immunophenotyping, CD4+ T cell population in SRBC immunised mice; assay type: in vivo, Swiss albino mice; conditions: graded doses; most significant suppression at 5 and 10 mg/kg vs sensitized control
Source text: Immunophenotyping focuses on lymphocyte populations involved in acquired immunity. Specific molecules present on the cell surface defines characteristics of lymphocytes such as state of activation or functional capabilities. Murine monoclonal antibodies conjugated to a fluorochrome and directed against co-receptors CD4 and CD8 were used in a multi parametric flowcytometric assay to quantify the lymphocyte subsets associated with the cell-mediated immune response.
Estimation of T cell surface markers: On day 0, mice were immunized by injecting 200 μl of 5×10^9 SRBC/ml intraperitonially. Drug administration was carried out for 6 days including the day of immunization. Same amount of SRBC was used to challenge the animals on day 7. After 24 h of challenge, blood was taken from retro-orbital plexus of animals for estimation of CD4^+ and CD8^+ T cells. 100 μl of whole blood was taken in each tube and FITC (fluorescein isothiocyanate) labelled CD4+ and PE (phycoerythrin) labelled CD8+ monoclonal antibodies were added and mixed gently. Tubes were incubated in the dark for 30 min. at room temperature. Subsequently, 2 ml of 1× FACS lysing solution was added at room temperature with gentle mixing. Samples were again incubated at room temperature for 10 min. […]

[2] = test system: humoral antibody response; assay: SRBC induced haemagglutination antibody titre (humoral immune response); assay type: in vivo, mice; conditions: for ANTIBODY TITRE MEAN ± S.E: blood on day 7
Method: 200 μl of 5×10^9 SRBC/ml was used to immunize the animals on day 0. Animals were treated with graded doses of AD-B-63B i.e., 1, 2.5, 5 and 10mg/kg p.o. for next six consecutive days. Blood samples were collected on day 7 for antibody titre assay. Haemagglutination antibody titre was determined following the microtitration technique described by Nelson and Midenhall, 1967. The value of highest serum dilution causing visible Haemagglutination was taken as titre. BSA saline alone served as control (Table 7).

[3] = test system: TNF-α; assay: Intracellular TNF-α estimation in LPS activated murine neutrophils by flowcytometry; assay type: cell-based; conditions: for Expression of intracellular TNF-alpha, Mean ± S.E: LPS 10 ng/ml, 3 h
Method: Flowcytometric studies were carried out to determine the anti-inflammatory effect of AD-B-63B on TNF-α cytokine expression in LPS activated murine neutrophils. Neutrophils play essential roles in host defence through their ability to clear bacterial infections. Their inappropriate activation contributes to a variety of inflammatory diseases, from the acute respiratory distress syndrome to asthma, chronic obstructive pulmonary disease and rheumatoid arthritis. TNF-α was chosen as the target for anti-inflammatory activity because of the fact that it is a pro-inflammatory cytokine and plays a major role in the pathogenesis of septic shock induced by LPS (Lipopolysaccharide) endotoxin injection [Remick, D. G.; Strieter, R. M.; Eskandari, M. K.; Nguyen, D. T.; Genord, M. A.; Raiford, C. L. Am. J. Path. 1990, 136, 49.]. LPS is an important triggering factor for in vivo systemic inflammatory response [Bone, R. C. Chest 1991, 100, 802]. LPS activates neutrophils via engagement of TLR4 (Toll-like receptor 4),[Sabroe, I.; Read, R. C.; Whyte, M. K. B.; Dockrell, D. H.; Vogel, S. N.; Dower, S. K. J. Immunol. 2003, 171, 1630.] resulting in the induction of a characteristic pro-inflammatory phenotype and prolongation of cell lifespan [Lee, A.; Whyte, M. K. B.; Haslett, C. J. Leukoc. Biol. 1993, 54, 283].
The anti-inflammatory activity of AD-B-63B was measured by the estimation of intracellular tumor necrosis factor alpha (TNF-α) expression in a gated population of neutrophils [Clara, B., R. C. Arancha, G. M. Andre's, P. Atanasio, A. Julia, and O. Alberto. 2003. A new method for detecting TNF-α-secreting cells using direct immunofluorescence surface membrane stainings. J. Immuno. Methods 264:77-87.]. Murine blood was subjected to centrifugation at 250× g for 20 min. Three layers were formed: an upper layer of platelet-rich plasma, a buffy coat middle layer and a lower layer formed of red blood cells. The middle layer was removed and subjected to Histopaque 1077 (Sigma) gradient separation. The upper layer containing neutrophils was removed and transferred to FACS tubes (Becton Dickinson). Lipopolysaccharide (LPS) derived from Escherichia coli (Sigma) was added at a concentration of 10 ng/ml for the stimulation of the cells. AD-B-63B was added at graded concentrations of 0.5, 1, 2.5, 5, 10 and 20 μg/ml. Samples were incubated for 3 h at 37° C. ( Table 1) Controls consisted of LPS-stimulated cells (LPS control). Further processing was done by the addition of FACS permeabilizing solution (Becton Dickinson), followed by the addition of phycoerythrin (PE)-labeled anti-mouse TNF-α. (Becton Dickinson). The cells were incubated in the dark, and after being washed with sterile PBS, samples were resuspended in PBS (pH 7.4) and acquired directly on the flow cytometer (FACS CANTO; Becton Dickinson). A fluorescence trigger was set on the […] parameter of the gated neutrophil populations (10,000 events). Rolipram at 100 μg/ml was used as standard inhibitor of TNF-α in this study. Fluorescence compensation, data analysis and data presentation were performed using software (Becton Dickinson) (FIG. 1) [Pandey A, Bani S, Kaul S, Sangawan P L; 2010, Selective Th1 upregulation by ethyl acetate fraction of Labisia pumila; 132 (2010) 309-315].

Compound: CC(=O)OC(C)(C)/C=C/C(=O)[C@](C)(O)[C@H]1[C@H](O)C[C@@]2(C)[C@@H]3CC=C4[C@@H](C=C(O[C@@H]5O[C@H](CO)[C@@H](O)[C@H](O)[C@H]5O)C(=O)C4(C)C)[C@]3(C)C(=O)C[C@]12C [AD-B-63B, 2-O-β-D-glucopyranosyl cucurbitacin E]
- percentage of CD4+ T-cell population [1]: decrease
- % ACTIVITY (decrease in antibody titre) ([2]; 1 mg/kg p.o.): 13.47↓ %
- ANTIBODY TITRE MEAN ± S.E ([2]; 1 mg/kg p.o. for six days): 5.33 ± 0.45
- % ACTIVITY (decrease in antibody titre) ([2]; 5 mg/kg p.o.): 33.11↓ %
- ANTIBODY TITRE MEAN ± S.E ([2]; 5 mg/kg p.o. for six days): 4.12 ± 0.33
- % ACTIVITY (decrease in antibody titre) ([2]; 10 mg/kg p.o.): 35.06↓ %
- ANTIBODY TITRE MEAN ± S.E ([2]; 10 mg/kg p.o. for six days): 4.00 ± 0.31
- antibody synthesis (haemagglutination antibody titre) ([2]; significant decrease at 2.5, 5 and 10 mg/kg p.o.): inhibition of antibody synthesis
- % TNF-alpha inhibition against LPS control ([3]; 0.5 μg/ml): 13.01↓ %
- Expression of intracellular TNF-alpha, Mean ± S.E ([3]; 0.5 μg/ml): 2.34 ± 0.07
- % TNF-alpha inhibition against LPS control ([3]; 1.0 μg/ml): 24.16↓ %
- Expression of intracellular TNF-alpha, Mean ± S.E ([3]; 1.0 μg/ml): 2.04 ± 0.06
- % TNF-alpha inhibition against LPS control ([3]; 5.0 μg/ml): 50.55%
- Expression of intracellular TNF-alpha, Mean ± S.E ([3]; 5.0 μg/ml): 1.33 ± 0.06
- % TNF-alpha inhibition against LPS control ([3]; 10.0 μg/ml): 60.59%
- Expression of intracellular TNF-alpha, Mean ± S.E ([3]; 10.0 μg/ml): 1.06 ± 0.03
- Expression of intracellular TNF-alpha, Mean ± S.E ([3]; […]): 1.84 ± 0.03
